Laboratory results from patent US11866720B2, “Transgenic or non-transgenic plants with mutated protoporphyrinogen oxidase having increased tolerance to herbicides” (priority 2013, dated 2024).
Values joined by “and” are separate entries in the source; they are usually repeats but may differ in a detail not shown here. Identical values can stand only once. Like-named read-outs stand apart in the source and are kept apart here.

How the values were obtained:
[1] = system: transgenic soybean expressing mutated PPO; assay: Soybean segregating T1 individuals, greenhouse spray test (injury 0-9); assay type: in vivo, Glycine max; settings: benzoxazin 100 g ai/ha, 1 week after treatment
[2] = system: transgenic Arabidopsis thaliana plants expressing wildtype or mutated PPO; assay: Germination / growth inhibition assay of transgenic Arabidopsis T2 seeds in 48-well plates; settings: growth inhibition seven to ten days after seeding
[3] = system: transgenic soybean expressing mutated PPO; assay: Soybean T0 cuttings, greenhouse spray test (injury score 0-9, 1 week after treatment); assay type: in vivo, Glycine max; settings: for Injury score from 0-9: soybean T0 cuttings, 1 week after treatment
Source text: For testing of T0 plants, cuttings can be used. In the case of soybean plants, an optimal shoot for cutting is about 7.5 to 10 cm tall, with at least two nodes present. Each cutting is taken from the original transformant (mother plant) and dipped into rooting hormone powder (indole-3-butyric acid, IBA). The cutting is then placed in oasis wedges inside a bio-dome. Wild type cuttings are also taken simultaneously to serve as controls. The cuttings are kept in the bio-dome for 5-7 days and then transplanted to pots and then acclimated in the growth chamber for two more days. Subsequently, the cuttings are transferred to the greenhouse, acclimated for approximately 4 days, and then subjected to spray tests as indicated. Depending on the species, the plants are kept at 10-25° C. or 20-35° C. The test period extends over 3 weeks. During this time, the plants are tended and their response to the individual treatments is evaluated. Herbicide injury evaluations are taken at 2 and 3 weeks after treatment. Plant injury is rated on a scale of 0% to 100%, 0% being no injury and 100% being complete death.
Soybean cv Jake was transformed as previously described by Siminszky et al., Phytochem Rev. 5:445-458 (2006). After regeneration, transformants were transplanted to soil in small pots, placed in growth chambers (16 hr day/8 hr night; 25° C. day/23° C. night; 65% relative humidity; 130-150 microE m-2 s-1) and subsequently tested for the presence of the T-DNA via Taqman analysis. After a few weeks, healthy, transgenic positive, single copy events were transplanted to larger pots and allowed to grow in the growth chamber. An optimal shoot for cutting was about 3-4 inches tall, with at least two nodes present. Each cutting was taken from the original transformant (mother plant) and dipped into rooting hormone powder (indole-3-butyric acid, IBA). The cutting was then placed in oasis wedges inside a bio-dome. The mother plant was taken to maturity in the greenhouse and harvested for seed. Wild type cuttings were also taken simultaneously to serve as negative controls. The cuttings were kept in the bio-dome for 5-7 days and then transplanted to 3 inch pots and then acclimated in the growth chamber for two more days. […] Herbicide injury evaluations were taken at 2, 7, 14 and 21 days after treatment. Results are shown in Tables 11a-11i, and FIGS. 5, 6, and 7.
The following gives a definition of the injury scores measured above: […]

[4] = system: transgenic soybean expressing mutated PPO; assay type: in vivo, Glycine max; settings: T1 soybean, field; for injury (1-5 point scale): benzoxazin (BAS 850H) 100 g ai/ha, 3 days after treatment; on injury (1-5 point scale): key: 1: no obvious damage (no phytotoxicity); 2: minor amount of leaf damage, plant will survive; 3: moderate amount of leaf damage, plant will survive; 4: severe amount of leaf damage, plant will survive; 5: no surviving plants - all plants dead/dying
[5] = SDS-10648 AmtuPPX2L R128A_F420I

## C#CCN1C(=O)C(F)(F)Oc2cc(F)c(-n3c(=O)n(C)c(=S)n(C)c3=O)cc21
[1]; SDS10791 AmtuPPX2L R128A_F420I
  injury (0-9 point scale): 3 (2×) and 2 and 4 (3×) and 9 and 5
[1]; SDS-10642 AmtuPPX2L R128A_F420L
  injury (0-9 point scale): 6 and 5 (5×) and 9 and 4
[1]; [5]
  injury (0-9 point scale): 4 (3×) and 9 and 5 (4×)
[1]; SDS-10652 AmtuPPX2L L397D_F420V
  injury (0-9 point scale): 9 (2×) and 4 (6×)
[1]; SDS-10787 AmtuPPX2L R128A_F420L
  injury (0-9 point scale): 4 and 5 (3×) and 9 (2×) and 6 (2×)
[1]; SDS-10985 AmtuPPX2L R128A_F420M
  injury (0-9 point scale): 9 (5×) and 6 (3×)
[1]; SDS-10990 AmtuPPX2L R128A_F420M
  injury (0-9 point scale): 9 (3×) and 7 (2×) and 6 (3×)
[1]; SDS-11034 AmtuPPX2L R128A_F420V
  injury (0-9 point scale): 4 (3×) and 3 (3×) and 2 (2×)
[1]; wild type
  injury (0-9 point scale): 9 (7×) and 8
[2]; transgenic Arabidopsis AMATU_PPO2_F420I
  Relative tolerance rate as compared to a non-transgenic Arabidopsis plant (non-transgenic = 1.0): 367
[2]; transgenic Arabidopsis AMATU_PPO2_F420L
  Relative tolerance rate as compared to a non-transgenic Arabidopsis plant (non-transgenic = 1.0): 253
[2]; transgenic Arabidopsis AMATU_PPO2_F420M
  Relative tolerance rate as compared to a non-transgenic Arabidopsis plant (non-transgenic = 1.0): 102
[2]; transgenic Arabidopsis AMATU_PPO2_R128A_F420I
  Relative tolerance rate as compared to a non-transgenic Arabidopsis plant (non-transgenic = 1.0): 333
[2]; transgenic Arabidopsis AMATU_PPO2_R128A_F420L
  Relative tolerance rate as compared to a non-transgenic Arabidopsis plant (non-transgenic = 1.0): 333
[2]; transgenic Arabidopsis AMATU_PPO2_R128A_F420M
  Relative tolerance rate as compared to a non-transgenic Arabidopsis plant (non-transgenic = 1.0): 204
[2]; transgenic Arabidopsis AMATU_PPO2_R128L
  Relative tolerance rate as compared to a non-transgenic Arabidopsis plant (non-transgenic = 1.0): 23
[2]; transgenic Arabidopsis AMATU_PPO2_dG210
  Relative tolerance rate as compared to a non-transgenic Arabidopsis plant (non-transgenic = 1.0): 33
[2]; transgenic Arabidopsis AMATU_PPO2_dG210_R128L
  Relative tolerance rate as compared to a non-transgenic Arabidopsis plant (non-transgenic = 1.0): 153
[2]; transgenic Arabidopsis AMATU_PPO2_wt
  Relative tolerance rate as compared to a non-transgenic Arabidopsis plant (non-transgenic = 1.0): 13
[3]; Soy T0 AmtuPPX2L_R128L_F420V event 1, greenhouse, 25 g ai/ha
  injury score 1 WAT: 3
[3]; Soy T0 AmtuPPX2L_R128L_F420V event 1, greenhouse, 50 g ai/ha
  injury score 1 WAT: 4
[3]; Soy T0 AmtuPPX2L_R128L_F420V event 1, greenhouse, 75 g ai/ha
  injury score 1 WAT: 5
[3]; Soy T0 AmtuPPX2L_R128L_F420V event 2, greenhouse, 25 g ai/ha
  injury score 1 WAT: 0
[3]; Soy T0 AmtuPPX2L_R128L_F420V event 2, greenhouse, 50 g ai/ha
  injury score 1 WAT: 1
[3]; Soy T0 AmtuPPX2L_R128L_F420V event 2, greenhouse, 75 g ai/ha
  injury score 1 WAT: 3
[3]; AmtuPPX2L (10 events), benzoxazin 12.5 + 1% MSO
  Injury score from 0-9: 3
[3]; AmtuPPX2L (10 events), benzoxazin 25 + 1% MSO
  Injury score from 0-9: 5
[3]; AmtuPPX2L_F420L (7 events), benzoxazin 12.5 + 1% MSO
  Injury score from 0-9: 2
[3]; AmtuPPX2L_F420L (7 events), benzoxazin 25 + 1% MSO
  Injury score from 0-9: 1
[3]; AmtuPPX2L_F420M (8 events), benzoxazin 25 + 1% MSO
  Injury score from 0-9: 1
[3]; AmtuPPX2L_F420M (8 events), benzoxazin 50 + 1% MSO
  Injury score from 0-9: 2
[3]; AmtuPPX2L_R128A_F420I (9 events), benzoxazin 25 + 1% MSO
  Injury score from 0-9: 2
[3]; AmtuPPX2L_R128A_F420I (9 events), benzoxazin 50 + 1% MSO
  Injury score from 0-9: 2
[3]; AmtuPPX2L_R128A_F420I (9 events), benzoxazin 75 + 1% MSO
  Injury score from 0-9: 3
[3]; AmtuPPX2L_R128A_F420L (6 events), benzoxazin 25 + 1% MSO
  Injury score from 0-9: 0
[3]; AmtuPPX2L_R128A_F420M (7 events), benzoxazin 25 + 1% MSO
  Injury score from 0-9: 3
[3]; AmtuPPX2L_R128A_F420M (7 events), benzoxazin 50 + 1% MSO
  Injury score from 0-9: 3
[3]; AmtuPPX2L_R128A_F420M (7 events), benzoxazin 75 + 1% MSO
  Injury score from 0-9: 4
[3]; AmtuPPX2L_R128A_F420V (14 events), benzoxazin 25 + 1% MSO
  Injury score from 0-9: 2
[3]; AmtuPPX2L_R128A_F420V (14 events), benzoxazin 50 + 1% MSO
  Injury score from 0-9: 2
[3]; AmtuPPX2L_R128A_F420V (14 events), benzoxazin 75 + 1% MSO
  Injury score from 0-9: 3
[3]; AmtuPPX2L_dG210 (13 events), benzoxazin 25 + 1% MSO
  Injury score from 0-9: 1
[3]; AmtuPPX2L_dG210 (13 events), benzoxazin 50 + 1% MSO
  Injury score from 0-9: 3
[3]; AmtuPPX2L_dG210_R128L (12 events), benzoxazin 25 + 1% MSO
  Injury score from 0-9: 2
[3]; AmtuPPX2L_dG210_R128L (12 events), benzoxazin 50 + 1% MSO
  Injury score from 0-9: 3
[3]; NitabPPX2 (13 events), benzoxazin 12.5 + 1% MSO
  Injury score from 0-9: 6
[3]; NitabPPX2 (13 events), benzoxazin 25 + 1% MSO
  Injury score from 0-9: 6
[3]; NitabPPX2_R98A_F392V (9 events), benzoxazin 25 + 1% MSO
  Injury score from 0-9: 0
[3]; NitabPPX2_R98A_F392V (9 events), benzoxazin 50 + 1% MSO
  Injury score from 0-9: 0
[3]; wild type Jake variety, benzoxazin 12.5 + 1% MSO
  Injury score from 0-9: 7
[3]; wild type Jake variety, benzoxazin 25 + 1% MSO
  Injury score from 0-9: 8
[3]; wild type Jake variety, benzoxazin 50 + 1% MSO
  Injury score from 0-9: 9
[3]; wild type Jake variety, benzoxazin 75 + 1% MSO
  Injury score from 0-9: 9
[4]; AmtuPPX2L_R128A_F420V (event 10), BAS 850H: treatment 1 100 g ai/ha, treatment 2 0, 7DAT
  Injury rating (1-5 point scale): 3.5
[4]; AmtuPPX2L_R128A_F420V (event 10), BAS 850H: treatment 1 300 g ai/ha, treatment 2 300 g ai/ha, 14 DAT
  Injury rating (1-5 point scale): 3
[4]; [5]
  injury (1-5 point scale): 3
[4]; SDS-10791 AmtuPPX2L R128A_F420I
  injury (1-5 point scale): 2
[4]; SDS-11014 AmtuPPX2L R128A_F420I
  injury (1-5 point scale): 2
[4]; SDS-11034 AmtuPPX2L L397D_F420V
  injury (1-5 point scale): 3
[4]; SDS-11035 AmtuPPX2L R128A_F420V
  injury (1-5 point scale): 2
[4]; SDS-11052 AmtuPPX2L R128A_F420M
  injury (1-5 point scale): 3
[4]; wild type, BAS 850H: treatment 1 100 g ai/ha, treatment 2 0, 7DAT
  Injury rating (1-5 point scale): 5
[4]; wild type, BAS 850H: treatment 1 300 g ai/ha, treatment 2 300 g ai/ha, 14 DAT
  Injury rating (1-5 point scale): 5
[4]; wild type
  injury (1-5 point scale): 5
